Assay results as given in patent US9309242B2, “Substituted pyrido[2,3-b]pyrazines as FGFR kinase inhibitors” (priority 2011, dated 2016).

What was measured:
[1] = system: Ba/F3-FGFR3-transfected cells; assay: Ba/F3-FGFR3 (plus IL3) cellular proliferation assay, counterscreen with 10 ng/ml murine IL3; type: cell-based; details: plus IL3 (10 ng/ml murine IL3, counterscreen); read-out: BAF3-FGFR3 (PLUS IL3) pIC50 (converted)
Outline: (§1)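 Compound dilutions were dispensed first, then 20000 FGFR3-transfected Ba/F3 cells per well in serum-containing RPMI-1640 were added. After 24 h incubation at 37° C, Alamar Blue was applied for 4 h before relative fluorescence units were recorded. In the minus-IL3 format cells grow without cytokine; the other format contains 10 ng/ml murine IL3.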

KDR (h) = KDR (h) (Homo sapiens, UniProt P35968); assay: KDR (VEGFR2) (enzymatic assay), TR-FRET; type: biochemical; details: read-out: VEGFR 2 (KDR) pIC50 (converted)
Chain of KDR (h) (P35968 20-1356): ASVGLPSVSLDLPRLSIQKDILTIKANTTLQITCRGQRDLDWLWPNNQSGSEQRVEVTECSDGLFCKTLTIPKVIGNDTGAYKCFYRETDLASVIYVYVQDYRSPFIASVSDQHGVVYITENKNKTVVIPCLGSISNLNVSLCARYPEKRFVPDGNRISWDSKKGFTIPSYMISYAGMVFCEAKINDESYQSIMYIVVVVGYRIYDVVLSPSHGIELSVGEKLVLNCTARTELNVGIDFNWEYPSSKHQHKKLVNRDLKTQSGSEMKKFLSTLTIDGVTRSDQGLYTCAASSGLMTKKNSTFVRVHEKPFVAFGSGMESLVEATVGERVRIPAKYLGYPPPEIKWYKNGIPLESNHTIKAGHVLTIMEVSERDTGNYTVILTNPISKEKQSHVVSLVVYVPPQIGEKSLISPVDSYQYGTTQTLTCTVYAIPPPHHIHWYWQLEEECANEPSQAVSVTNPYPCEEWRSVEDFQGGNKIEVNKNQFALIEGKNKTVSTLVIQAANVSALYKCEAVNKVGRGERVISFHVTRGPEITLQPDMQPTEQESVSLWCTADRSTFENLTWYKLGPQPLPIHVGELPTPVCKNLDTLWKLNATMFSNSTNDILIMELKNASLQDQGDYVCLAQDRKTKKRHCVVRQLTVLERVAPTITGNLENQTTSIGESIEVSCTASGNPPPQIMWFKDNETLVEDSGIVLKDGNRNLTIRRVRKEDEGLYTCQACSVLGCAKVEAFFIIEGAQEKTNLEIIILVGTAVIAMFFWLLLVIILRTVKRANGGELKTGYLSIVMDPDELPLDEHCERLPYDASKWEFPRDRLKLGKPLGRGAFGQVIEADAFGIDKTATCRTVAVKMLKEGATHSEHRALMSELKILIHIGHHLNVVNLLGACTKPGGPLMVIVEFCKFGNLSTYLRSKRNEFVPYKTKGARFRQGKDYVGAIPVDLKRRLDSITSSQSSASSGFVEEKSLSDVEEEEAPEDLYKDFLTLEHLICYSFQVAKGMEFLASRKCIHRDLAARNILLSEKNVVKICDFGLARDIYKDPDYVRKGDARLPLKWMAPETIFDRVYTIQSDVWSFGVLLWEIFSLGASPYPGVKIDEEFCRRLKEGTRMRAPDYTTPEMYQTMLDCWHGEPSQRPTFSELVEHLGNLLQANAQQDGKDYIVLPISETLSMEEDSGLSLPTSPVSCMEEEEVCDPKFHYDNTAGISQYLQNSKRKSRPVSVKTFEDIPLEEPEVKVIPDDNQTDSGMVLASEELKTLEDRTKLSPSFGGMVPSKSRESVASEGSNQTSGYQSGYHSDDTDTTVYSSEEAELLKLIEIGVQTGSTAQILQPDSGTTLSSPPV
Outline: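 Low-ATP (3 μM) TR-FRET kinase assay using 500 nM Btn-Flt3 peptide and 150 ng/ml enzyme, run 2 h at room temperature with 6 mM MnCl2 and 0.1 mM Na3VO4. Signal from Eu-anti-P-Tyr/SA-XL-665 is recorded in RFU.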

[2] = system: Ba/F3-KDR-transfected cells; assay: Ba/F3-KDR (plus IL3) cellular proliferation assay, counterscreen with 10 ng/ml murine IL3; type: cell-based; details: plus IL3 (10 ng/ml murine IL3, counterscreen); read-out: BAF3-KDR (PLUS IL3) pIC50 (converted)
Outline: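 Cells grown with test compound at 37° C and 5% CO2 for 24 hours were given a resazurin/ferricyanide/ferrocyanide reagent for 4 hours before fluorescence (540/590 nm) was recorded.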

[3] = system: Ba/F3-FGFR1-transfected cells; assay: Ba/F3-FGFR1 (plus IL3) cellular proliferation assay, counterscreen with 10 ng/ml murine IL3; type: cell-based; details: plus IL3 (10 ng/ml murine IL3, counterscreen); read-out: BAF3-FGFR1 (PLUS IL3) pIC50 (converted)
Outline: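 Proliferation read-out: resazurin-based Alamar Blue fluorescence (540/590 nm) after 4 h, following 24 h compound treatment of 20000 Ba/F3-FGFR1 cells per well in 10% FBS RPMI at 37° C. IL3 counterscreen used the same protocol plus 10 ng/ml murine IL3.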

FGFR4 (h) = FGFR4 (h) (Homo sapiens, UniProt P22455); assay: FGFR4 (enzymatic assay), TR-FRET; type: biochemical; details: FGFR 4 pIC50, enzymatic assay
Chain of FGFR4 (h) (P22455 22-802): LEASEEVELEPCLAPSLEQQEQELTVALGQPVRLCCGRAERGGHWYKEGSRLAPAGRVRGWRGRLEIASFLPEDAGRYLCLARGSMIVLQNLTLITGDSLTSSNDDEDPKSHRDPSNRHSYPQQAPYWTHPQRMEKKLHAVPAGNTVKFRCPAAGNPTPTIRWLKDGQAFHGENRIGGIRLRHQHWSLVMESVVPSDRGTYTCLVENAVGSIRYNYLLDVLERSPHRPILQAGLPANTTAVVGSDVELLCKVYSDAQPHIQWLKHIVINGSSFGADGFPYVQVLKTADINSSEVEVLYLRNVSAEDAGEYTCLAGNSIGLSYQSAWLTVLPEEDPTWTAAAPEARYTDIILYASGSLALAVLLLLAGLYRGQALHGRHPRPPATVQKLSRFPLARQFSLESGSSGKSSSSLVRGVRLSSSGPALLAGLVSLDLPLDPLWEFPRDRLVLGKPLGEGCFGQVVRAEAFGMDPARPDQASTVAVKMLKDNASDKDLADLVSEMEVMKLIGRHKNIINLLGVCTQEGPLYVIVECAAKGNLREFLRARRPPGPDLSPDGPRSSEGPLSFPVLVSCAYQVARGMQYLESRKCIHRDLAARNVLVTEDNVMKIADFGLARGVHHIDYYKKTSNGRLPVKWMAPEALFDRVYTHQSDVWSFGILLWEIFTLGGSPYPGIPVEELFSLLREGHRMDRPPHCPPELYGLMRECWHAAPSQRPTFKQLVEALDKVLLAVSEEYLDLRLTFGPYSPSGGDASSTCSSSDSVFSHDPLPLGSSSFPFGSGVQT

[4] = biological target: T1, Ba/F3-FGFR1-transfected cells (Homo sapiens, UniProt P11362); assay: Ba/F3-FGFR1 (minus IL3) cellular proliferation assay, Alamar Blue; type: cell-based
T1 construct: BAF3-FGFR1 (MIN IL3) pIC50; other: minus IL3
T1 sequence (P11362 whole entry, change not shown): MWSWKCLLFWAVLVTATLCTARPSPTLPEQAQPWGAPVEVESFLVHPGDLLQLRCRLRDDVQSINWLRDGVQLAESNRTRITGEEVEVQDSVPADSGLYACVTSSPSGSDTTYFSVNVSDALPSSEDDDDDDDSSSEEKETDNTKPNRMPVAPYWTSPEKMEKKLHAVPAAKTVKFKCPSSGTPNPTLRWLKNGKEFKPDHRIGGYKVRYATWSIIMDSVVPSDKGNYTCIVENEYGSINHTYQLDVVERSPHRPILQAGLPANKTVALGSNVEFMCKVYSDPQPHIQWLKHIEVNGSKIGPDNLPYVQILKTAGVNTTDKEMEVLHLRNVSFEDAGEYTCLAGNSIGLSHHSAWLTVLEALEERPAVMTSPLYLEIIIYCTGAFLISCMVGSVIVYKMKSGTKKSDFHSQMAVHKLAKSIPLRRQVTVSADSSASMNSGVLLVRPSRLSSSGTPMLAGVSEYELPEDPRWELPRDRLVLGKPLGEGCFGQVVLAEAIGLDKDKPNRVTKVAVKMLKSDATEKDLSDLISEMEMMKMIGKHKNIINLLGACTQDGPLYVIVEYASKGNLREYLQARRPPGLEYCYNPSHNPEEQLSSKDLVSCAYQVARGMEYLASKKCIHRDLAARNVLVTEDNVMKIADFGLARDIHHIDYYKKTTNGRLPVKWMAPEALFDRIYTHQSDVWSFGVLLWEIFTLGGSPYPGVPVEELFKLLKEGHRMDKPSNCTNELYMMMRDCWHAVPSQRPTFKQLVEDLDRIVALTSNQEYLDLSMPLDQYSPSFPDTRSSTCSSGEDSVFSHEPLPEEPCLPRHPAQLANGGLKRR
Outline: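 Compound is dispensed first, then FGFR1-transfected Ba/F3 cells are added at 20000 per well in phenol red-free RPMI-1640 containing 10% FBS. After 24 h at 37 °C, Alamar Blue is added for 4 h and fluorescence is measured at 540/590 nm.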

FGFR2 (h) = FGFR2 (h) (Homo sapiens, UniProt P21802); assay: FGFR2 (enzymatic assay), TR-FRET; type: biochemical; details: enzymatic assay; read-out: FGFR 2 pIC50 (converted)
Chain of FGFR2 (h) (P21802 22-821): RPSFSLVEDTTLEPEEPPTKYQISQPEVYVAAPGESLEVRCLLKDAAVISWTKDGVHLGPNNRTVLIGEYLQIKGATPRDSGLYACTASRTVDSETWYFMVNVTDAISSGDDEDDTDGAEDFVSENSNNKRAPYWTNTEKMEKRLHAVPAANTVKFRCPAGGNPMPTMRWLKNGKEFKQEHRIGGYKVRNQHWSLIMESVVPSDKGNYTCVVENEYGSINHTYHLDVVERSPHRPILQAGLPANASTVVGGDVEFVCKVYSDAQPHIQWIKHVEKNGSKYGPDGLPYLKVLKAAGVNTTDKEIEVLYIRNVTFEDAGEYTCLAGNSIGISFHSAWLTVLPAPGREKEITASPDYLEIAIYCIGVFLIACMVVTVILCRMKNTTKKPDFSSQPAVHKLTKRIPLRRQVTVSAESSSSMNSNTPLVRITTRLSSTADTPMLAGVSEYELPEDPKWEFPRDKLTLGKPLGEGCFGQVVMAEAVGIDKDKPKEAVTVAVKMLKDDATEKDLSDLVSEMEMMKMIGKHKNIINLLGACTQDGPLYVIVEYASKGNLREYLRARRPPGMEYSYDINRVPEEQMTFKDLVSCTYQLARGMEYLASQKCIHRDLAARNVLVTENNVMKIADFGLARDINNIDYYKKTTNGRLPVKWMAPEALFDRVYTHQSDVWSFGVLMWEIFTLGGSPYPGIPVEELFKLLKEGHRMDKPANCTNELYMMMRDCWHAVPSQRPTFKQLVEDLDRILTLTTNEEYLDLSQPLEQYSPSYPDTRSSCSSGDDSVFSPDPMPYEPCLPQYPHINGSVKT
Outline: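 hFGFR2 150 ng/ml; Btn-Flt3 500 nM; ATP 0.4 μM; 50 mM HEPES pH 7.5, 6 mM MnCl2, 1 mM DTT, 0.1 mM Na3VO4, 0.01% Triton-X-100; 1% DMSO final.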

FGFR3 (h) = FGFR3 (h) (Homo sapiens, UniProt P22607); assay: FGFR3 (enzymatic assay), TR-FRET; type: biochemical; details: read-out: FGFR 3 pIC50 (converted)
Excerpt: Time-Resolved Fluorescence Resonance Energy Transfer (TR-FRET) signal (ex340 nm.

[5] = biological target: T2, Ba/F3-FGFR3-transfected cells (Homo sapiens, UniProt P22607); assay: Ba/F3-FGFR3 (minus IL3) cellular proliferation assay, Alamar Blue; type: cell-based
T2 construct: BAF3-FGFR3 (MIN IL3) pIC50; other: minus IL3
T2 sequence (P22607 whole entry, change not shown): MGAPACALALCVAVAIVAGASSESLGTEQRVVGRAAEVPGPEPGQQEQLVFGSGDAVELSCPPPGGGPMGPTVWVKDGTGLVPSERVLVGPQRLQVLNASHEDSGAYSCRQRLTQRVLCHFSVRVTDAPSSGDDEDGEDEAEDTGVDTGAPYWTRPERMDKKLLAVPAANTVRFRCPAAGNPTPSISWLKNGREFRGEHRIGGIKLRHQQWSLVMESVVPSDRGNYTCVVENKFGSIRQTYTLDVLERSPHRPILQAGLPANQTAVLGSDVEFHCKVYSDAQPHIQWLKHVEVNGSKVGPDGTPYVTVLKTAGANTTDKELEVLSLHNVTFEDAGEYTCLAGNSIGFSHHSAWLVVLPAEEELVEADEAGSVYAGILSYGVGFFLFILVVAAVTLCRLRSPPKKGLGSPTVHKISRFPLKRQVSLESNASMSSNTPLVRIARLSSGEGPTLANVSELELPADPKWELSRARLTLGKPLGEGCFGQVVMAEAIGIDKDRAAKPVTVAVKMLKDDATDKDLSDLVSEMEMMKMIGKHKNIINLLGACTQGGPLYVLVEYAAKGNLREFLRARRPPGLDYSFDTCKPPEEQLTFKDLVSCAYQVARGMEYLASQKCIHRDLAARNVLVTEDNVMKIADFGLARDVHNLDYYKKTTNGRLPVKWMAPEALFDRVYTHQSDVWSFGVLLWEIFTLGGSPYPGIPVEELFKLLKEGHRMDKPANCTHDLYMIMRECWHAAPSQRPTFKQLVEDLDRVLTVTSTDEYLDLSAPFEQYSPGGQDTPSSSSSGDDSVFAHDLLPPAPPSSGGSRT
Outline: as §1

Structure (SMILES)	IC50 [1]	IC50 (KDR (h))	IC50 [2]	IC50 [3]	IC50 (FGFR4 (h))	BAF3-FGFR1 (MIN IL3) pIC50 [4]	IC50 (FGFR2 (h))	IC50 (FGFR3 (h))	BAF3-FGFR3 (MIN IL3) pIC50 [5]
CNCCn1ccnc1CN(c1ccc2ncc(-c3cnn(C)c3)nc2n1)c1cc(OC)cc(OC)c1F [Compound 289]	> 10000 nM	97.7 nM	> 10000 nM	> 10000 nM	57.5 nM	6.66	8.51 nM	12.9 nM	6.92
CNC(=O)c1cc(F)cc(N(Cc2ncc[nH]2)c2ccc3ncc(-c4cnn(C)c4)nc3n2)c1 [Compound 261]	> 10000 nM	10.2 nM	> 10000 nM	> 10000 nM	6.03 nM	7.61	~2.82 nM	1.91 nM	~7.74
COc1cc(OC)cc(N(CC(O)COC(C)C)c2ccc3ncc(-c4cnn(CC(O)COC(C)C)c4)nc3n2)c1 (stereo not drawn) [Compound 250]	> 10000 nM	120 nM	> 10000 nM	> 10000 nM	8.71 nM	6.45	6.03 nM	4.79 nM	~7.09
COc1cc(OC)c(F)c(N(Cc2noc(C)n2)c2ccc3ncc(-c4cnn(C)c4)nc3n2)c1 [Compound 297]	> 10000 nM	16.2 nM	> 10000 nM	> 10000 nM	3.02 nM	7.70	1.78 nM	1.7 nM	7.69
COc1cc(OC)c(C)c(N(Cc2ncc[nH]2)c2ccc3ncc(-c4cnn(C)c4)nc3n2)c1 [Compound 273]	> 10000 nM	20.4 nM	> 10000 nM	> 10000 nM	2.82 nM	8.44	3.8 nM	3.16 nM	~8.60
COc1cc(OC)c(F)c(N(CC(=O)N2CCNCC2)c2ccc3ncc(-c4cnn(C)c4)nc3n2)c1 [Compound 262]	> 10000 nM	240 nM	> 10000 nM	> 10000 nM	55 nM	6.51	7.24 nM	17.4 nM	~6.17
COc1cc(OC)c(F)c(N(c2ccc3ncc(-c4cnn(C)c4)nc3n2)C(C)c2ncc[nH]2)c1 (stereo not drawn) [Compound 287]	> 10000 nM	17.4 nM	> 10000 nM	> 10000 nM	2.14 nM	8.87	3.09 nM	2.14 nM	~8.54
COc1cc(OC)cc(N(Cc2ncc[nH]2)c2ccc3ncc(N4CCOCC4)nc3n2)c1 [Compound 293]	> 10000 nM	234 nM	> 10000 nM	> 10000 nM	4.79 nM	7.59	1.82 nM	1.58 nM	7.59
COc1cc(OC)cc(N(CC2CC(O)C(=O)N2)c2ccc3ncc(-c4cnn(C)c4)nc3n2)c1 (stereo not drawn) [Compound 271]	> 10000 nM	174 nM	> 10000 nM	> 10000 nM	7.76 nM	6.02	3.98 nM	2.45 nM	6.27
COc1cc(OC)c(F)c(N(Cc2c[nH]nn2)c2ccc3ncc(-c4cnn(C)c4)nc3n2)c1 [Compound 258]	> 10000 nM	12.3 nM	> 10000 nM	> 10000 nM	1.32 nM	7.38	1.45 nM	0.676 nM	7.91
COc1cc(OC)c(F)c(N(CC(O)COC(C)C)c2ccc3ncc(-c4cnn(CC(O)COC(C)C)c4)nc3n2)c1 (single isomer, unassigned) [Compound 252]	> 10000 nM	49 nM	> 10000 nM	> 10000 nM	5.13 nM	7.14	5.37 nM	4.07 nM	7.42
COc1cc(OC)c(F)c(N(Cc2ncc[nH]2)c2ccc3ncc(-c4cnn(CCCN)c4)nc3n2)c1 [Compound 295]	> 10000 nM	9.33 nM	> 10000 nM	> 10000 nM	2.4 nM	8.47	1.74 nM	1.29 nM	8.17
COc1cc(OC)c(F)c(N(CC(O)c2cnn(C)c2)c2ccc3ncc(-c4cnn(C)c4)nc3n2)c1 (stereo not drawn) [Compound 244]	> 10000 nM	129 nM	> 10000 nM	> 10000 nM	16.2 nM	6.76	5.01 nM	4.07 nM	6.73
COc1cc(/N=c2\ccc3ncc(-c4cnn(C)c4)nc3n2CC2CC(O)C(=O)N2)cc(OC)c1 (stereo not drawn) [Compound 272]	> 10000 nM	10 nM	> 10000 nM	> 10000 nM	5.25 nM	6.54	2.57 nM	1.45 nM	6.73
COc1cc(/N=c2\ccc3ncc(-c4cnn(CC(C)(C)O)c4)nc3n2CC2CCC(=O)N2)c(F)c(OC)c1 (stereo not drawn) [Compound 286]	> 10000 nM	11 nM	> 10000 nM	> 10000 nM	3.89 nM	7.07	2.04 nM	1.35 nM	7.66
COc1cc(OC)c(F)c(/N=c2\ccc3ncc(-c4cnn(C)c4)nc3n2C)c1F (single isomer, unassigned) [Compound 255]	> 10000 nM	3.09 nM	> 10000 nM	> 10000 nM	0.513 nM	7.93	0.776 nM	0.363 nM	8.38
COc1cc(OC)cc(N(CCNC2COC2)c2ccc3ncc(-c4cnn(C)c4)nc3n2)c1 [Compound 290]	> 10000 nM	55 nM	> 10000 nM	> 10000 nM	12.9 nM	7.09	4.47 nM	4.47 nM	7.06
COc1cc(OC)c(F)c(N(CC(=O)NC(C)C)c2ccc3ncc(-c4cnn(C)c4)nc3n2)c1 [Compound 249]	> 10000 nM	224 nM	> 10000 nM	> 10000 nM	33.1 nM	6.70	4.79 nM	7.59 nM	6.83
COc1cc(OC)c(F)c(N(Cc2ncc[nH]2)c2ccc3ncc(N4C[C@@H](C)N[C@@H](C)C4)nc3n2)c1 [Compound 259]	> 10000 nM	309 nM	> 10000 nM	> 10000 nM	28.2 nM	7.33	2.88 nM	4.57 nM	7.18
COc1cc(OC)c(F)c(N(Cc2ncc[nH]2)c2ccc3ncc(N4CCOCC4)nc3n2)c1 [Compound 291]	> 10000 nM	89.1 nM	> 10000 nM	> 10000 nM	3.39 nM	8.03	1.55 nM	1.2 nM	7.73
